The record followed here is US20250161289A1, “KAT6 Targeting Compounds” (Prelude Therapeutics Incorporated, priority 2023, published 2025).

As a reminder, the DC50 is the midpoint of the concentration-degradation curve. Higher therefore signals degradation only at high concentration. One may read the Dmax as the largest share of the target that was removed. The low end stands for shallow degradation, the high end for deep degradation.

The target of the assay is T1, KAT6A (Homo sapiens, UniProt Q92794).
T1 construct: expressed in transfected cells; host or cells: HeLa
The experiment in a line: HiBit KAT6A Degradation Assessment. In kind it is cell-based. The note with it: HeLa cells with a HiBit tagged KAT6A; for Dmax: HeLa. The method, then:
The degradation activity of compounds was evaluated by measuring levels of KAT6A protein using the HiBiT system. These studies were conducted in HeLa cells with a HiBit tagged KAT6A. Cells were maintained in a 37° C. incubator at 5% CO2 in EMEM or DMEM (ATCC, 30-2003) supplemented with 10% v/v FBS (Gibco, 26140-079) and 1% penicillin streptomycin. Cells were seeded in 384-well plates at a density of 2,000 cells/well. Compounds dissolved in DMSO were added in 9-point serial dilution. After 18-24 h of treatment, KAT6A levels were measured using the Nano-Glo® HiBiT Lytic Detection System (Promega catalog number N3030) per manufacturer's instructions. Luminescence signal was measured with a multimode plate reader (Envision 2105, Perkin Elmer or PHERAStar FSX, BMG Labtech). Luminescence values were normalized to background and DMSO controls to quantify KAT6A for each condition. Results were analyzed, and DC50 and Dmax values obtained using a four-parameter logistic curve fit. The results are summarized in Table 3 (18 h of treatment) and Table 4 (24 h of treatment).

T1 sequence (Q92794 whole entry): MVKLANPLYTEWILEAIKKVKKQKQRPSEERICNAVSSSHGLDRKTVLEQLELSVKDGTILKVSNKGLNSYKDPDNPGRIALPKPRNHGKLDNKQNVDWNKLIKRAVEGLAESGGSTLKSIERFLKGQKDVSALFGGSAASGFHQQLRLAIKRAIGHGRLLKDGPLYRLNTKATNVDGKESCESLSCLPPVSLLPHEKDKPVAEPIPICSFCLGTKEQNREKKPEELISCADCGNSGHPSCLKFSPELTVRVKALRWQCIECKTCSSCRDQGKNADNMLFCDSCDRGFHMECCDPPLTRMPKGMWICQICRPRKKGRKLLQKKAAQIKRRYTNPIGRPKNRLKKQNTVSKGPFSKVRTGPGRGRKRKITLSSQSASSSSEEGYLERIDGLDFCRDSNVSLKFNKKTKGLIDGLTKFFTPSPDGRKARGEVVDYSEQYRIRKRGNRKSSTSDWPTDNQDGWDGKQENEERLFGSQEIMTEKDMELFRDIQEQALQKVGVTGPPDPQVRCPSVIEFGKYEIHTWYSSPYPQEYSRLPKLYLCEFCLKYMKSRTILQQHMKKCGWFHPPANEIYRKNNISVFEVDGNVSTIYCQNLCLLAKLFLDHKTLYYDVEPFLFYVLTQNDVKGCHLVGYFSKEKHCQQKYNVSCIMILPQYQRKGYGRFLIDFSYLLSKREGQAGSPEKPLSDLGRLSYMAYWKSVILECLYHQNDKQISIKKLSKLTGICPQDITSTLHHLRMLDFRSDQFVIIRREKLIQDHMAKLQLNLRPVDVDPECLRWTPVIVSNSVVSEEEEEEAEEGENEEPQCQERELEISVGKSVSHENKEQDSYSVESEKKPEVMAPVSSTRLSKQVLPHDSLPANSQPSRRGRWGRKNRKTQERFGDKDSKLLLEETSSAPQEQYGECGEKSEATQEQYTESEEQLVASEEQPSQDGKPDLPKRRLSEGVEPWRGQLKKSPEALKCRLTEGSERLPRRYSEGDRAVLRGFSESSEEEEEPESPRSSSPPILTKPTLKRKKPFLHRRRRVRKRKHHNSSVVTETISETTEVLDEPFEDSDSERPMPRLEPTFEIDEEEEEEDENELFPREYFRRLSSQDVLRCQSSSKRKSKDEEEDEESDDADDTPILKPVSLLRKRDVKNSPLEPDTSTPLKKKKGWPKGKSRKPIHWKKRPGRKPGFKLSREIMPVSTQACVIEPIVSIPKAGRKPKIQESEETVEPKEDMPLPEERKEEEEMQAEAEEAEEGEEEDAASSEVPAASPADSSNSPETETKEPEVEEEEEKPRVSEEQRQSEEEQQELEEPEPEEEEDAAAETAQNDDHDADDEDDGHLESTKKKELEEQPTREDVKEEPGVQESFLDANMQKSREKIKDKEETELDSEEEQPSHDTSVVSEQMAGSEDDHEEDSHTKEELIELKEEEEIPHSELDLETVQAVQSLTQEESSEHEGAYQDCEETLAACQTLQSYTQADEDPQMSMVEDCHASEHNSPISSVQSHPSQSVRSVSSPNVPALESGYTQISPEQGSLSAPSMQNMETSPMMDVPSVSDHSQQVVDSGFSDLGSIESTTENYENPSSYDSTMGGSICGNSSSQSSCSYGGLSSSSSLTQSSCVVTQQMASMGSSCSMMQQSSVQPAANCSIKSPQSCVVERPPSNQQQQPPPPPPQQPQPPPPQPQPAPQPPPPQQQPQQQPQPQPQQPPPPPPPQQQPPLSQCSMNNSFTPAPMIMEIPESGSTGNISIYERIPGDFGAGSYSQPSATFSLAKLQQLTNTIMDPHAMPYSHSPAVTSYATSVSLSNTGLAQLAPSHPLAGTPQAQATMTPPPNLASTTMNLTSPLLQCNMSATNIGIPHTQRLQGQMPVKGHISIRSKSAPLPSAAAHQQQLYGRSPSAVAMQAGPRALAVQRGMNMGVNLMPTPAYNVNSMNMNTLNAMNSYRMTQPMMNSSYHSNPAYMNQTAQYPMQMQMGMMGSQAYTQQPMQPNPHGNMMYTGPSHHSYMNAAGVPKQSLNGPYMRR

`O=C1CC[C@H](N2Cc3cc(N4CC[C@@H](CN5CCC6(CC5)CN(c5cccc(S(=O)(=O)Nc7noc8cc(Cn9cccn9)c9c(c78)OCC9)c5)C6)C4)ccc3C2=O)C(=O)N1` [Example 1, N-(4-((1H-Pyrazol-1-yl)methyl)-2,3-dihydrobenzofuro[7,6-d]isoxazol-8-yl)-3-(7-(((S)-1-(2-((S)-2,6-dioxopiperidin-3-yl)-1-oxoisoindolin-5-yl)pyrrolidin-3-yl)methyl)-2,7-diazaspiro[3.5]nonan-2-yl)benzenesulfonamide]: under “18 h of treatment”, the DC50 was under 10 nM and the Dmax is over 75%. For the setting “24 h of treatment”, this compound yielded a DC50 of 10 to 100 nM and a Dmax of 50 to 75%.

In the case of `O=C1CC[C@H](N2Cc3cc(N4CC[C@@H](CN5C[C@H]6CN(c7cccc(S(=O)(=O)Nc8noc9cc(Cn%10cccn%10)c%10c(c89)OCC%10)c7)C[C@@H]6C5)C4)ccc3C2=O)C(=O)N1` [Example 2, N-(4-((1H-Pyrazol-1-yl)methyl)-2,3-dihydrobenzofuro[7,6-d]isoxazol-8-yl)-3-((3aS,6aS)-5-(((S)-1-(2-((S)-2,6-dioxopiperidin-3-yl)-1-oxoisoindolin-5-yl)pyrrolidin-3-yl)methyl)hexahydropyrrolo[3,4-c]pyrrol-2(1H)-yl)benzenesulfonamide], under “18 h of treatment”, the 50% degradation concentration (DC50) fell in the range of 10 to 100 nM and the Dmax is over 75%.

Under “18 h of treatment”, `O=C1CC[C@H](N2Cc3cc(N4CC[C@@H](CN5CCC6(CC5)CCN(c5cccc(S(=O)(=O)Nc7noc8cc(Cn9cccn9)c9c(c78)OCC9)c5)CC6)C4)ccc3C2=O)C(=O)N1` [Example 3, N-(4-((1H-Pyrazol-1-yl)methyl)-2,3-dihydrobenzofuro[7,6-d]isoxazol-8-yl)-3-(9-(((S)-1-(2-((S)-2,6-dioxopiperidin-3-yl)-1-oxoisoindolin-5-yl)pyrrolidin-3-yl)methyl)-3,9-diazaspiro[5.5]undecan-3-yl)benzenesulfonamide] yielded a DC50 of 10 to 100 nM and a Dmax of over 75%.

For the setting “18 h of treatment”, `O=C1CC[C@H](N2Cc3cc(N4CC[C@@H](CN5CC6(CCN(c7cccc(S(=O)(=O)Nc8noc9cc(Cn%10cccn%10)c%10c(c89)OCC%10)c7)CC6)C5)C4)ccc3C2=O)C(=O)N1` [Example 4, N-(4-((1H-Pyrazol-1-yl)methyl)-2,3-dihydrobenzofuro[7,6-d]isoxazol-8-yl)-3-(2-(((S)-1-(2-((S)-2,6-dioxopiperidin-3-yl)-1-oxoisoindolin-5-yl)pyrrolidin-3-yl)methyl)-2,7-diazaspiro[3.5]nonan-7-yl)benzenesulfonamide] displayed a DC50 of 10 to 100 nM and a Dmax of over 75%.

Take `O=C1CC[C@H](N2Cc3cc(N4CC[C@@H](CNC5CCN(c6cccc(S(=O)(=O)Nc7noc8cc(Cn9cccn9)c9c(c78)OCC9)c6)CC5)C4)ccc3C2=O)C(=O)N1` [Example 5, N-(4-((1H-Pyrazol-1-yl)methyl)-2,3-dihydrobenzofuro[7,6-d]isoxazol-8-yl)-3-(4-((((S)-1-(2-((S)-2,6-dioxopiperidin-3-yl)-1-oxoisoindolin-5-yl)pyrrolidin-3-yl)methyl)amino)piperidin-1-yl)benzenesulfonamide]: the greatest degradation seen (Dmax) (18 h of treatment) was in the range of 25 to 50%.

`O=C1CCC(N2C(=O)c3ccc(N4CCC5(CC4)CC(N4CCN(c6cccc(S(=O)(=O)Nc7noc8cc(Cn9cccn9)c9c(c78)OCC9)c6)CC4)C5)cc3C2=O)C(=O)N1` (stereo not shown) [Example 6, N-(4-((1H-Pyrazol-1-yl)methyl)-2,3-dihydrobenzofuro[7,6-d]isoxazol-8-yl)-3-(4-(7-(2-(2,6-dioxopiperidin-3-yl)-1,3-dioxoisoindolin-5-yl)-7-azaspiro[3.5]nonan-2-yl)piperazin-1-yl)benzenesulfonamide]: where the note is “18 h of treatment”, the DC50 is 100 to 1000 nM and the Dmax was in the range of 50 to 75%.

With `O=C1CCC(N2C(=O)c3cccc(N4CCC(CN5CCN(c6cccc(S(=O)(=O)Nc7noc8cc(Cn9cccn9)c9c(c78)OCC9)c6)CC5)CC4)c3C2=O)C(=O)N1` (stereo not shown) [Example 7, N-(4-((1H-Pyrazol-1-yl)methyl)-2,3-dihydrobenzofuro[7,6-d]isoxazol-8-yl)-3-(4-((1-(2-(2,6-dioxopiperidin-3-yl)-1,3-dioxoisoindolin-4-yl)piperidin-4-yl)methyl)piperazin-1-yl)benzenesulfonamide], under “18 h of treatment”, the DC50 is 100 to 1000 nM and the Dmax was in the range of 50 to 75%.

`O=C1CCC(N2C(=O)c3ccc(N4CCC(CN5CCC(CN6CCN(c7cccc(S(=O)(=O)Nc8noc9cc(Cn%10cccn%10)c%10c(c89)OCC%10)c7)CC6)CC5)C4)cc3C2=O)C(=O)N1` (stereo not shown) [Example 8, N-(4-((1H-Pyrazol-1-yl)methyl)-2,3-dihydrobenzofuro[7,6-d]isoxazol-8-yl)-3-(4-((1-((1-(2-(2,6-dioxopiperidin-3-yl)-1,3-dioxoisoindolin-5-yl)pyrrolidin-3-yl)methyl)piperidin-4-yl)methyl)piperazin-1-yl)benzenesulfonamide]: under “18 h of treatment”, the DC50 is under 10 nM and the Dmax was over 75%.

For the setting “18 h of treatment”, `O=C1CCC(N2C(=O)c3ccc(N4CCC(CN5CCC(CN6CCN(c7cccc(S(=O)(=O)Nc8noc9cc(Cn%10cccn%10)c%10c(c89)OCC%10)c7)CC6)CC5)CC4)cc3C2=O)C(=O)N1` (stereo not shown) [Example 9, N-(4-((1H-Pyrazol-1-yl)methyl)-2,3-dihydrobenzofuro[7,6-d]isoxazol-8-yl)-3-(4-((1-((1-(2-(2,6-dioxopiperidin-3-yl)-1,3-dioxoisoindolin-5-yl)piperidin-4-yl)methyl)piperidin-4-yl)methyl)piperazin-1-yl)benzenesulfonamide] showed a DC50 of under 10 nM and a Dmax of 50 to 75%.

In the case of `COc1ccc(N2CC3(CCN(C[C@@H]4CCN(c5ccc6c(c5)CN([C@H]5CCC(=O)NC5=O)C6=O)C4)CC3)C2)c(OC)c1S(=O)(=O)Nc1noc2cc(Cn3cccn3)c3c(c12)OCC3` [Example 10, N-(4-((1H-Pyrazol-1-yl)methyl)-2,3-dihydrobenzofuro[7,6-d]isoxazol-8-yl)-3-(7-(((S)-1-(2-((S)-2,6-dioxopiperidin-3-yl)-1-oxoisoindolin-5-yl)pyrrolidin-3-yl)methyl)-2,7-diazaspiro[3.5]nonan-2-yl)-2,6-dimethoxybenzenesulfonamide], for the setting “24 h of treatment”, the half-maximal degradation concentration (DC50) was under 10 nM and the greatest degradation seen (Dmax) was over 75%.

Under “24 h of treatment”, `COc1ccc(N2CC3(CCN(CC4CCN(c5ccc6c(c5)C(=O)N(C5CCC(=O)NC5=O)C6=O)CC4)CC3)C2)c(OC)c1S(=O)(=O)Nc1noc2cc(Cn3cccn3)c3c(c12)OCC3` (stereo not shown) [Example 11, N-(4-((1H-Pyrazol-1-yl)methyl)-2,3-dihydrobenzofuro[7,6-d]isoxazol-8-yl)-3-(7-((1-(2-(2,6-dioxopiperidin-3-yl)-1,3-dioxoisoindolin-5-yl)piperidin-4-yl)methyl)-2,7-diazaspiro[3.5]nonan-2-yl)-2,6-dimethoxybenzenesulfonamide] registered a DC50 of under 10 nM and a Dmax of 50 to 75%.

Regarding `COc1c(N2CC3(CCN(CC4CCN(c5ccc6c(c5)C(=O)N(C5CCC(=O)NC5=O)C6=O)CC4)CC3)C2)cccc1S(=O)(=O)Nc1noc2cc(Cn3cccn3)c3c(c12)OCC3` (stereo not shown) [Example 12, N-(4-((1H-Pyrazol-1-yl)methyl)-2,3-dihydrobenzofuro[7,6-d]isoxazol-8-yl)-3-(7-((1-(2-(2,6-dioxopiperidin-3-yl)-1,3-dioxoisoindolin-5-yl)piperidin-4-yl)methyl)-2,7-diazaspiro[3.5]nonan-2-yl)-2-methoxybenzenesulfonamide], under “24 h of treatment”, the DC50 lay within 10 to 100 nM and the Dmax was over 75%.

`COc1c(N2CC3(CCN(C[C@@H]4CCN(c5ccc6c(c5)CN([C@H]5CCC(=O)NC5=O)C6=O)C4)CC3)C2)cccc1S(=O)(=O)Nc1noc2cc(Cn3cccn3)c3c(c12)OCC3` [Example 13, N-(4-((1H-Pyrazol-1-yl)methyl)-2,3-dihydrobenzofuro[7,6-d]isoxazol-8-yl)-3-(7-(((S)-1-(2-((S)-2,6-dioxopiperidin-3-yl)-1-oxoisoindolin-5-yl)pyrrolidin-3-yl)methyl)-2,7-diazaspiro[3.5]nonan-2-yl)-2-methoxybenzenesulfonamide]: for the setting “24 h of treatment”, the DC50 is under 10 nM and the Dmax was over 75%.

With `COc1c(N2CC3(CCN(CC4CCN(c5cccc6c5C(=O)N(C5CCC(=O)NC5=O)C6=O)CC4)CC3)C2)cccc1S(=O)(=O)Nc1noc2cc(Cn3cccn3)c3c(c12)OCC3` (stereo not shown) [Example 14, N-(4-((1H-Pyrazol-1-yl)methyl)-2,3-dihydrobenzofuro[7,6-d]isoxazol-8-yl)-3-(7-((1-(2-(2,6-dioxopiperidin-3-yl)-1,3-dioxoisoindolin-4-yl)piperidin-4-yl)methyl)-2,7-diazaspiro[3.5]nonan-2-yl)-2-methoxybenzenesulfonamide], for the setting “24 h of treatment”, the DC50 was under 10 nM and the Dmax was over 75%.

Where the note is “24 h of treatment”, `O=C1CC[C@H](N2Cc3cc(N4CC[C@@H](CN5CCC6(CC5)CN(c5ccc(S(=O)(=O)Nc7noc8cc(Cn9cccn9)c9c(c78)OCC9)cc5)C6)C4)ccc3C2=O)C(=O)N1` [Example 15, N-(4-((1H-Pyrazol-1-yl)methyl)-2,3-dihydrobenzofuro[7,6-d]isoxazol-8-yl)-4-(7-(((S)-1-(2-((S)-2,6-dioxopiperidin-3-yl)-1-oxoisoindolin-5-yl)pyrrolidin-3-yl)methyl)-2,7-diazaspiro[3.5]nonan-2-yl)benzenesulfonamide] gave a DC50 of 10 to 100 nM and a Dmax of 50 to 75%.
